Biological target: T1, human Edg-1 receptor (Homo sapiens, UniProt P21453)
T1 construct: FLAG (N); expressed in transfected cells; membrane preparation
Assay: GTP-γ-S assay using human Edg-1 receptors (scintillation proximity assay, CHO Flp-In membrane preparation)
Assay type: biochemical
Conditions: test compound 10 μM; high control 10 μM S1P regarded as 100% activation; background-corrected; triplicate
From the text: Determination of the Pharmacological Activity A) GTP-γ-S Assay Using Human Edg-1 Receptors
In order to determine the Edg-1 receptor activation by the compounds of the invention, a GTP-γ-S (guanosine 5′-[y-thio]triphosphate) assay for G-protein coupled receptor binding based on the scintillation proximity assay principle was used, employing a cell membrane preparation from a CHO Flp-In cell line which constitutively overexpresses the human Edg-1 receptor.
A membrane preparation was obtained by standard methods from the afore-described CHO Flp-In cell line constitutively overexpressing the human Edg-1 receptor. Briefly, the cryopreserved cells were taken in culture and grown until confluency in T175 cell culture flasks (Becton Dickinson, cat. no. 35 5001). Cell culture was stopped by washing with calcium-free phosphate-buffered saline (PBS; Gibco, cat. no. 14190), and cells were harvested with a rubber-policeman in 4° C. cold and calcium-free PBS supplemented with a protease inhibitor cocktail (complete protease inhibitor; Roche, cat. no. 1697498; 1 tablet per 50 ml) and subsequently centrifuged at 4° C. for 15 min at 1100×g (Heraeus Minifuge T). For cell lysis, the pellet was resuspended in a 4° C. cold hypotonic buffer consisting of 5 mM HEPES (Sigma-Aldrich, cat. no. H-0981), 1 mM EDTA (disodium salt; Merck, cat. No. 8418) supplemented with protease inhibitor cocktail (as above) in which cells were stored for another 15 min on ice. After lysis, cells were centrifuged at 4° C. for 10 min at 400×g (Heraeus Minifuge T). The pellet was disrupted in a Dounce homogenizer, diluted with the supernatant of the previous centrifugation and subsequently centrifuged at 4° C. for 10 min at 500×g (Heraeus Minifuge T) in order to separate nuclei and still intact cells from the membranes mainly present in the supernatant. The supernatant was then diluted in hypotonic buffer and centrifuged (Beckmann, Avanti J251) at approximately 18600×g for 2 h at 4° C. […] Protein concentration of the membrane preparation was determined in a sample by means of a commercial protein assay (Bio-Rad, DC Protein Assay, cat. nos. 500-0113, 500-0114, 500-0115).
The Edg-1 membrane preparation obtained in (b) was employed in a commercially available scintillation proximity assay (SPA) kit for G-protein coupled receptor binding from Amersham Biosciences/GE Healthcare (code RPNQ0210), in which ligand-induced binding of ^35S-radiolabled GTP-γ-S to the receptor-containing membrane, which is bound to scintillation beads, stimulates the emission of light and allows to quantify the in vitro activity of the Edg-1 agonistic compound. […]

T1 sequence (P21453 whole entry): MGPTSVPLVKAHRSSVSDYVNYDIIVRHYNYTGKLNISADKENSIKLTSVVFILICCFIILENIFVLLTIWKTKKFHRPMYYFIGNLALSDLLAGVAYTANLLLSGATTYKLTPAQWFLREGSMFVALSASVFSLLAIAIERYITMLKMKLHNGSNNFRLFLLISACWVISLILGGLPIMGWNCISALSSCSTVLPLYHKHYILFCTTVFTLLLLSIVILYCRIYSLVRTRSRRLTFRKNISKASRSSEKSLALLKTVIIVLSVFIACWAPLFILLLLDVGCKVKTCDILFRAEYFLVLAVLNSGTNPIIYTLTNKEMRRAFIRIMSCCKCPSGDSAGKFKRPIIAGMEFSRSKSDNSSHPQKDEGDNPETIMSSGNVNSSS

SMILES | Edg-1 receptor activation in percent of the activation by 10 μM S1P (% Activation) [%]
Cc1cc(-c2nc3cnc(Oc4ccccc4F)nc3o2)cc(C)c1OCC(=O)N1CCC[C@H]1C(=O)O [Example 1, (S)-1-(2-{4-[5-(2-Fluoro-phenoxy)-oxazolo[5,4-d]pyrimidin-2-yl]-2,6-dimethyl-phenoxy}-acetyl)-pyrrolidine-2-carboxylic acid] | 115
Cc1cc(-c2nc3cnc(Oc4ccccc4F)nc3o2)cc(C)c1OC(C)C(=O)N1CCC[C@H]1C(=O)O (stereo partly drawn) [Example 2, (S)-1-(2-{4-[5-(2-Fluoro-phenoxy)-oxazolo[5,4-d]pyrimidin-2-yl]-2,6-dimethyl-phenoxy}-propionyl)-pyrrolidine-2-carboxylic acid] | 93
O=C(O)[C@@H]1CCCN1C(=O)/C=C/c1ccc(-c2nc3cnc(Oc4ccccc4F)nc3o2)cc1 [Example 3, (S)-1-((E)-3-{4-[5-(2-Fluoro-phenoxy)-oxazolo[5,4-d]pyrimidin-2-yl]-phenyl}-acryloyl)-pyrrolidine-2-carboxylic acid] | 82
O=C(O)[C@@H]1CCCN1C(=O)CCc1ccc(-c2nc3cnc(Oc4ccccc4F)nc3o2)cc1 [Example 4, (S)-1-(3-{4-[5-(2-Fluoro-phenoxy)-oxazolo[5,4-d]pyrimidin-2-yl]-phenyl}-propionyl)-pyrrolidine-2-carboxyl is acid] | 103
